# Experimental data reported in PubChem BioAssay (NCI).
#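 GI50 is the concentration that inhibits growth by half. TGI denotes the concentration required for complete inhibition of growth.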
# Legend:
# Assay in all cases: NCI-60 cell line screen, 384-well format
# A498 renal = system: A498 renal
# A549 NSCLC = system: A549 NSCLC
# ACHN renal = system: ACHN renal
# BT-549 breast = system: BT-549 breast
# CAKI-1 renal = system: CAKI-1 renal
# COLO 205 colon = system: COLO 205 colon
# DU-145 prostate = system: DU-145 prostate
# HCC-2998 colon = system: HCC-2998 colon
# HCT-116 colon = system: HCT-116 colon
# HCT-15 colon = system: HCT-15 colon
# HL-60(TB) leukemia = system: HL-60(TB) leukemia
# HOP-62 NSCLC = system: HOP-62 NSCLC
# HOP-92 NSCLC = system: HOP-92 NSCLC
# HS 578T breast = system: HS 578T breast
# K-562 leukemia = system: K-562 leukemia
# KM12 colon = system: KM12 colon
# LOX IMVI melanoma = system: LOX IMVI melanoma
# M14 melanoma = system: M14 melanoma
# MALME-3M melanoma = system: MALME-3M melanoma
# MDA-MB-231 breast = system: MDA-MB-231 breast
# MDA-MB-435 melanoma = system: MDA-MB-435 melanoma
# MDA-MB-468 breast = system: MDA-MB-468 breast
# MOLT-4 leukemia = system: MOLT-4 leukemia
# NCI-H226 lung = system: NCI-H226 lung
# NCI-H23 lung = system: NCI-H23 lung
# NCI-H322M lung = system: NCI-H322M lung
# NCI-H460 NSCLC = system: NCI-H460 NSCLC
# NCI/ADR-RES ovarian = system: NCI/ADR-RES ovarian
# OVCAR-4 ovarian = system: OVCAR-4 ovarian
# OVCAR-5 ovarian = system: OVCAR-5 ovarian
# OVCAR-8 ovarian = system: OVCAR-8 ovarian
# PC-3 prostate = system: PC-3 prostate
# RPMI-8226 leukemia = system: RPMI-8226 leukemia
# SF-268 CNS = system: SF-268 CNS
# SF-295 CNS = system: SF-295 CNS
# SF-539 CNS = system: SF-539 CNS
# SK-MEL-2 melanoma = system: SK-MEL-2 melanoma
# SK-MEL-5 melanoma = system: SK-MEL-5 melanoma
# SK-OV-3 ovarian = system: SK-OV-3 ovarian
# SN12C renal = system: SN12C renal
# SNB-75 CNS = system: SNB-75 CNS
# SR leukemia = system: SR leukemia
# SW-620 colon = system: SW-620 colon
# TK-10 renal = system: TK-10 renal
# U251 glioblastoma = system: U251 glioblastoma
# UACC-62 melanoma = system: UACC-62 melanoma
# UO-31 renal = system: UO-31 renal
smiles,measurement,setting,value
N=C(N)c1ccc2nc(-c3cc(CC(=O)N[C@@H](CC(=O)O)C(=O)O)cc(-c4cc(S(N)(=O)=O)ccc4O)c3O)[nH]c2c1,GI50,A498 renal,> 100 µM
same,TGI,A498 renal,> 100 µM
same,GI50,A549 NSCLC,> 100 µM
same,TGI,A549 NSCLC,> 100 µM
same,GI50,ACHN renal,> 100 µM
same,TGI,ACHN renal,> 100 µM
same,GI50,BT-549 breast,> 100 µM
same,TGI,BT-549 breast,> 100 µM
same,GI50,CAKI-1 renal,> 100 µM
same,TGI,CAKI-1 renal,> 100 µM
same,GI50,COLO 205 colon,> 100 µM
same,TGI,COLO 205 colon,> 100 µM
same,GI50,DU-145 prostate,> 100 µM
same,TGI,DU-145 prostate,> 100 µM
same,GI50,HCC-2998 colon,> 100 µM
same,TGI,HCC-2998 colon,> 100 µM
same,GI50,HCT-116 colon,> 100 µM
same,TGI,HCT-116 colon,> 100 µM
same,GI50,HCT-15 colon,> 100 µM
same,TGI,HCT-15 colon,> 100 µM
same,GI50,HL-60(TB) leukemia,> 100 µM
same,TGI,HL-60(TB) leukemia,> 100 µM
same,GI50,HOP-62 NSCLC,> 100 µM
same,TGI,HOP-62 NSCLC,> 100 µM
same,GI50,HOP-92 NSCLC,> 100 µM
same,TGI,HOP-92 NSCLC,> 100 µM
same,GI50,HS 578T breast,> 100 µM
same,TGI,HS 578T breast,> 100 µM
same,GI50,K-562 leukemia,> 100 µM
same,TGI,K-562 leukemia,> 100 µM
same,GI50,KM12 colon,> 100 µM
same,TGI,KM12 colon,> 100 µM
same,GI50,LOX IMVI melanoma,> 100 µM
same,TGI,LOX IMVI melanoma,> 100 µM
same,GI50,M14 melanoma,> 100 µM
same,TGI,M14 melanoma,> 100 µM
same,GI50,MALME-3M melanoma,> 100 µM
same,TGI,MALME-3M melanoma,> 100 µM
same,GI50,MDA-MB-231 breast,> 100 µM
same,TGI,MDA-MB-231 breast,> 100 µM
same,GI50,MDA-MB-435 melanoma,> 100 µM
same,TGI,MDA-MB-435 melanoma,> 100 µM
same,GI50,MDA-MB-468 breast,> 100 µM
same,TGI,MDA-MB-468 breast,> 100 µM
same,GI50,MOLT-4 leukemia,> 100 µM
same,TGI,MOLT-4 leukemia,> 100 µM
same,GI50,NCI-H226 lung,> 100 µM
same,TGI,NCI-H226 lung,> 100 µM
same,GI50,NCI-H23 lung,> 100 µM
same,TGI,NCI-H23 lung,> 100 µM
same,GI50,NCI-H322M lung,> 100 µM
same,TGI,NCI-H322M lung,> 100 µM
same,GI50,NCI-H460 NSCLC,> 100 µM
same,TGI,NCI-H460 NSCLC,> 100 µM
same,GI50,NCI/ADR-RES ovarian,> 100 µM
same,TGI,NCI/ADR-RES ovarian,> 100 µM
same,GI50,OVCAR-4 ovarian,> 100 µM
same,TGI,OVCAR-4 ovarian,> 100 µM
same,GI50,OVCAR-5 ovarian,> 100 µM
same,TGI,OVCAR-5 ovarian,> 100 µM
same,GI50,OVCAR-8 ovarian,> 100 µM
same,TGI,OVCAR-8 ovarian,> 100 µM
same,GI50,PC-3 prostate,> 100 µM
same,TGI,PC-3 prostate,> 100 µM
same,GI50,RPMI-8226 leukemia,> 100 µM
same,TGI,RPMI-8226 leukemia,> 100 µM
same,GI50,SF-268 CNS,> 100 µM
same,TGI,SF-268 CNS,> 100 µM
same,GI50,SF-295 CNS,> 100 µM
same,TGI,SF-295 CNS,> 100 µM
same,GI50,SF-539 CNS,> 100 µM
same,TGI,SF-539 CNS,> 100 µM
same,GI50,SK-MEL-2 melanoma,> 100 µM
same,TGI,SK-MEL-2 melanoma,> 100 µM
same,GI50,SK-MEL-5 melanoma,> 100 µM
same,TGI,SK-MEL-5 melanoma,> 100 µM
same,GI50,SK-OV-3 ovarian,> 100 µM
same,TGI,SK-OV-3 ovarian,> 100 µM
same,GI50,SN12C renal,> 100 µM
same,TGI,SN12C renal,> 100 µM
same,GI50,SNB-75 CNS,> 100 µM
same,TGI,SNB-75 CNS,> 100 µM
same,GI50,SR leukemia,> 100 µM
same,TGI,SR leukemia,> 100 µM
same,GI50,SW-620 colon,> 100 µM
same,TGI,SW-620 colon,> 100 µM
same,GI50,TK-10 renal,> 100 µM
same,TGI,TK-10 renal,> 100 µM
same,GI50,U251 glioblastoma,> 100 µM
same,TGI,U251 glioblastoma,> 100 µM
same,GI50,UACC-62 melanoma,> 100 µM
same,TGI,UACC-62 melanoma,> 100 µM
same,GI50,UO-31 renal,> 100 µM
same,TGI,UO-31 renal,> 100 µM
